Data: ChEMBL document CHEMBL3621062, “Discovery, SAR, and X-ray Binding Mode Study of BCATm Inhibitors from a Novel DNA-Encoded Library” (ACS Med Chem Lett, 2015)

Target: T1, Branched-chain-amino-acid aminotransferase, mitochondrial (Homo sapiens, UniProt O15382)
T1 sequence (O15382 whole entry): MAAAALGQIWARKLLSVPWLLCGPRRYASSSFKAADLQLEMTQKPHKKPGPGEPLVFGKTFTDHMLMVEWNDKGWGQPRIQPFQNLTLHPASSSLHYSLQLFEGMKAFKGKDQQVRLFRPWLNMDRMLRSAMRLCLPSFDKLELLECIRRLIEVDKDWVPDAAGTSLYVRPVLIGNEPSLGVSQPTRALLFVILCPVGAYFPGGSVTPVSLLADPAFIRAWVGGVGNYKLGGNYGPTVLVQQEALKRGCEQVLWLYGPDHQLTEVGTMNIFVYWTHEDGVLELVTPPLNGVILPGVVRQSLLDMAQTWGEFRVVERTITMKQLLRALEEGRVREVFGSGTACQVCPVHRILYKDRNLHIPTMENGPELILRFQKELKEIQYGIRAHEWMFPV
Assay: Inhibition of human BCATm after 10 mins by fluorescent assay

SMILES	IC50 [µM]
CNC(=O)c1ccc(-c2cccc(C(=O)O)c2)cc1OC1CCN(C(=O)c2cc(Br)ccc2NC(=O)OC(C)(C)C)C1 (stereo not given)	> 100
CNC(=O)c1ccccc1OC1CCN(C(=O)c2ccc(Br)s2)C1 (stereo not given)	> 100
CNC(=O)c1ccc(-c2ccccc2C)cc1O[C@@H]1CCN(C(=O)c2ccc(Br)s2)C1	64.6
CNC(=O)c1ccc(-c2ccccc2NS(C)(=O)=O)cc1O[C@@H]1CCN(C(=O)c2ccc(Cl)s2)C1	2.8
CNC(=O)c1ccc(-c2ccccc2NS(C)(=O)=O)cc1OC1CCN(C(=O)c2ccc(Br)s2)C1 (racemic)	3.9
CNC(=O)c1ccc(-c2ccccc2)cc1O[C@@H]1CCN(C(=O)c2ccc(Br)s2)C1	> 100
CNC(=O)c1ccc(-c2cccc(C(=O)O)c2)cc1OC1CCN(C(=O)c2ccc(Br)s2)C1 (stereo not given)	74.1
CNC(=O)c1ccc(-c2cccc(C(=O)O)c2)cc1OC1CCN(C(=O)c2cc(Br)ccc2N)C1 (stereo not given)	> 100
CNC(=O)c1ccc(-c2ccccc2NS(C)(=O)=O)cc1O[C@@H]1CCN(C(=O)c2ccc(C#N)s2)C1	15.1
CNC(=O)c1ccc(-c2ccccc2NS(C)(=O)=O)cc1O[C@@H]1CCN(C(=O)c2ccc(Br)s2)C1	2
